This is an account of results in the NIST ThermoML archive (doi:10.1021/je800754w).

± gives the expanded uncertainty stated by the source.

This data set can be described thus: activity coefficient (dimensionless); of the first substance listed, at infinite dilution; xn = mol fraction of the nth substance listed. To be noted: Liquid, Chromatography, x1 = 0.

In the case of `C1COCCO1` [1,4-dioxane] + CCCCCCCCCCCCCC[P+](CCCCCC)(CCCCCC)CCCCCC.O=S(=O)([N-]S(=O)(=O)C(F)(F)F)C(F)(F)F, the activity coefficient (302.45 K) came to 0.51 ± 0.04, the activity coefficient (322.35 K) turned out to be 0.49 ± 0.04 and the activity coefficient (342.45 K) worked out at 0.48 ± 0.04.

For the compound `C#CCCCCC` [1-heptyne] + CCCCCCCCCCCCCC[P+](CCCCCC)(CCCCCC)CCCCCC.O=S(=O)([N-]S(=O)(=O)C(F)(F)F)C(F)(F)F, the activity coefficient is, setting by setting: (302.45 K) 0.77 ± 0.05; (322.35 K) 0.78 ± 0.05; (342.45 K) 0.8 ± 0.05.

On to `C#CCCCC` [1-hexyne] + CCCCCCCCCCCCCC[P+](CCCCCC)(CCCCCC)CCCCCC.O=S(=O)([N-]S(=O)(=O)C(F)(F)F)C(F)(F)F, for which the activity coefficient runs as follows: (302.45 K) 0.7 ± 0.1; (322.35 K) 0.69 ± 0.05; (342.45 K) 0.67 ± 0.05.

As for `CCC[N+](=O)[O-]` [1-nitropropane] + CCCCCCCCCCCCCC[P+](CCCCCC)(CCCCCC)CCCCCC.O=S(=O)([N-]S(=O)(=O)C(F)(F)F)C(F)(F)F, the activity coefficient was 2.19 ± 0.15 (302.45 K), 1.62 ± 0.11 (322.35 K) and 1.35 ± 0.09 (342.45 K).

Regarding `CC(C)CO` [2-methyl-1-propanol] + CCCCCCCCCCCCCC[P+](CCCCCC)(CCCCCC)CCCCCC.O=S(=O)([N-]S(=O)(=O)C(F)(F)F)C(F)(F)F, the activity coefficient is, setting by setting: (302.45 K) 1.49 ± 0.1; (322.35 K) 1.15 ± 0.07; (342.45 K) 0.95 ± 0.06.

`CCC(C)CC` [3-methylpentane] + CCCCCCCCCCCCCC[P+](CCCCCC)(CCCCCC)CCCCCC.O=S(=O)([N-]S(=O)(=O)C(F)(F)F)C(F)(F)F: the activity coefficient reads like this: (302.45 K) 1.04 ± 0.07; (322.35 K) 0.98 ± 0.06; (342.45 K) 0.94 ± 0.06.

On to `CC#N` [acetonitrile] + CCCCCCCCCCCCCC[P+](CCCCCC)(CCCCCC)CCCCCC.O=S(=O)([N-]S(=O)(=O)C(F)(F)F)C(F)(F)F, for which the activity coefficient turned out to be 0.56 ± 0.04 (302.45 K), 0.5 ± 0.04 (322.35 K) and 0.46 ± 0.04 (342.45 K).

In the case of `c1ccccc1` [benzene] + CCCCCCCCCCCCCC[P+](CCCCCC)(CCCCCC)CCCCCC.O=S(=O)([N-]S(=O)(=O)C(F)(F)F)C(F)(F)F, the activity coefficient is, setting by setting: (302.45 K) 0.39 ± 0.03; (322.35 K) 0.39 ± 0.03; (342.45 K) 0.39 ± 0.03.

Turning to `CCCCO` [butan-1-ol] + CCCCCCCCCCCCCC[P+](CCCCCC)(CCCCCC)CCCCCC.O=S(=O)([N-]S(=O)(=O)C(F)(F)F)C(F)(F)F, the activity coefficient reads like this: (302.45 K) 1.62 ± 0.11; (322.35 K) 1.26 ± 0.08; (342.45 K) 1.04 ± 0.07.

Regarding `CCCC=O` [butanal] + CCCCCCCCCCCCCC[P+](CCCCCC)(CCCCCC)CCCCCC.O=S(=O)([N-]S(=O)(=O)C(F)(F)F)C(F)(F)F, the activity coefficient (302.45 K) was found to be 0.38 ± 0.03, the activity coefficient (322.35 K) stood at 0.36 ± 0.03 and the activity coefficient (342.45 K) came out at 0.35 ± 0.03.

Regarding `CCC(C)=O` [butanone] + CCCCCCCCCCCCCC[P+](CCCCCC)(CCCCCC)CCCCCC.O=S(=O)([N-]S(=O)(=O)C(F)(F)F)C(F)(F)F, the activity coefficient (302.45 K) was found to be 0.28 ± 0.03, the activity coefficient (322.35 K) came out at 0.27 ± 0.03 and the activity coefficient (342.45 K) was determined as 0.23 ± 0.03.

As to `C1CCCCCC1` [cycloheptane] + CCCCCCCCCCCCCC[P+](CCCCCC)(CCCCCC)CCCCCC.O=S(=O)([N-]S(=O)(=O)C(F)(F)F)C(F)(F)F, the activity coefficient is, setting by setting: (302.45 K) 0.83 ± 0.05; (322.35 K) 1.81 ± 0.12; (342.45 K) 3.59 ± 0.24.

In the case of `C1CCCCC1` [cyclohexane] + CCCCCCCCCCCCCC[P+](CCCCCC)(CCCCCC)CCCCCC.O=S(=O)([N-]S(=O)(=O)C(F)(F)F)C(F)(F)F, the activity coefficient amounted to 0.83 ± 0.05 (302.45 K), 0.78 ± 0.05 (322.35 K) and 0.75 ± 0.05 (342.45 K).

As for `CCCCCCCCCC` [decane] + CCCCCCCCCCCCCC[P+](CCCCCC)(CCCCCC)CCCCCC.O=S(=O)([N-]S(=O)(=O)C(F)(F)F)C(F)(F)F, the activity coefficient worked out at 1.97 ± 0.13 (302.45 K), 1.89 ± 0.13 (322.35 K) and 1.84 ± 0.12 (342.45 K).

Turning to `ClCCl` [dichloromethane] + CCCCCCCCCCCCCC[P+](CCCCCC)(CCCCCC)CCCCCC.O=S(=O)([N-]S(=O)(=O)C(F)(F)F)C(F)(F)F, the activity coefficient reads like this: (302.45 K) 0.23 ± 0.03; (322.35 K) 0.25 ± 0.03; (342.45 K) 0.27 ± 0.03.

With `CCOCC` [diethyl ether] + CCCCCCCCCCCCCC[P+](CCCCCC)(CCCCCC)CCCCCC.O=S(=O)([N-]S(=O)(=O)C(F)(F)F)C(F)(F)F, the activity coefficient is, setting by setting: (302.45 K) 0.62 ± 0.04; (322.35 K) 0.59 ± 0.04; (342.45 K) 0.57 ± 0.04.

Regarding `CC(C)OC(C)C` [diisopropyl ether] + CCCCCCCCCCCCCC[P+](CCCCCC)(CCCCCC)CCCCCC.O=S(=O)([N-]S(=O)(=O)C(F)(F)F)C(F)(F)F, the activity coefficient is, setting by setting: (302.45 K) 0.93 ± 0.06; (322.35 K) 0.9 ± 0.06; (342.45 K) 0.87 ± 0.06.

For `CCO` [ethanol] + CCCCCCCCCCCCCC[P+](CCCCCC)(CCCCCC)CCCCCC.O=S(=O)([N-]S(=O)(=O)C(F)(F)F)C(F)(F)F, the activity coefficient (302.45 K) came out at 1.56 ± 0.1, the activity coefficient (322.35 K) worked out at 1.23 ± 0.08 and the activity coefficient (342.45 K) was 1.01 ± 0.06.

On to `CCc1ccccc1` [ethylbenzene] + CCCCCCCCCCCCCC[P+](CCCCCC)(CCCCCC)CCCCCC.O=S(=O)([N-]S(=O)(=O)C(F)(F)F)C(F)(F)F, for which the activity coefficient stood at 0.54 ± 0.04 (302.45 K), 0.57 ± 0.04 (322.35 K) and 0.59 ± 0.04 (342.45 K).

For the compound `CCCCCCC` [heptane] + CCCCCCCCCCCCCC[P+](CCCCCC)(CCCCCC)CCCCCC.O=S(=O)([N-]S(=O)(=O)C(F)(F)F)C(F)(F)F, the activity coefficient was 1.27 ± 0.08 (302.45 K), 1.22 ± 0.08 (322.35 K) and 1.19 ± 0.08 (342.45 K).

`C=CCCCC` [hex-1-ene] + CCCCCCCCCCCCCC[P+](CCCCCC)(CCCCCC)CCCCCC.O=S(=O)([N-]S(=O)(=O)C(F)(F)F)C(F)(F)F: the activity coefficient is, setting by setting: (302.45 K) 0.91 ± 0.06; (322.35 K) 0.87 ± 0.06; (342.45 K) 0.85 ± 0.05.

For `CCCCCC` [hexane] + CCCCCCCCCCCCCC[P+](CCCCCC)(CCCCCC)CCCCCC.O=S(=O)([N-]S(=O)(=O)C(F)(F)F)C(F)(F)F, the activity coefficient runs as follows: (302.45 K) 1.09 ± 0.07; (322.35 K) 1.04 ± 0.07; (342.45 K) 1.01 ± 0.06.

Turning to `C=O` [methanal] + CCCCCCCCCCCCCC[P+](CCCCCC)(CCCCCC)CCCCCC.O=S(=O)([N-]S(=O)(=O)C(F)(F)F)C(F)(F)F, the activity coefficient (302.45 K) stood at 0.06, the activity coefficient (322.35 K) came to 0.06 and the activity coefficient (342.45 K) worked out at 0.07 ± 0.03.

For the compound `CO` [methanol] + CCCCCCCCCCCCCC[P+](CCCCCC)(CCCCCC)CCCCCC.O=S(=O)([N-]S(=O)(=O)C(F)(F)F)C(F)(F)F, the activity coefficient is, setting by setting: (302.45 K) 1.29 ± 0.08; (322.35 K) 0.98 ± 0.06; (342.45 K) 0.86 ± 0.06.

In the case of `CC1CCCCC1` [methylcyclohexane] + CCCCCCCCCCCCCC[P+](CCCCCC)(CCCCCC)CCCCCC.O=S(=O)([N-]S(=O)(=O)C(F)(F)F)C(F)(F)F, the activity coefficient runs as follows: (302.45 K) 0.92 ± 0.06; (322.35 K) 0.89 ± 0.06; (342.45 K) 0.86 ± 0.06.

Regarding `CC1CCCC1` [methylcyclopentane] + CCCCCCCCCCCCCC[P+](CCCCCC)(CCCCCC)CCCCCC.O=S(=O)([N-]S(=O)(=O)C(F)(F)F)C(F)(F)F, the activity coefficient (302.45 K) was determined as 0.85 ± 0.05, the activity coefficient (322.35 K) amounted to 0.8 ± 0.1 and the activity coefficient (342.45 K) came to 0.77 ± 0.05.

Consider `C[N+](=O)[O-]` [nitromethane] + CCCCCCCCCCCCCC[P+](CCCCCC)(CCCCCC)CCCCCC.O=S(=O)([N-]S(=O)(=O)C(F)(F)F)C(F)(F)F, for which the activity coefficient was 0.77 ± 0.05 (302.45 K), 0.64 ± 0.04 (322.35 K) and 0.58 ± 0.04 (342.45 K).

In the case of `CCCCCCCCC` [nonane] + CCCCCCCCCCCCCC[P+](CCCCCC)(CCCCCC)CCCCCC.O=S(=O)([N-]S(=O)(=O)C(F)(F)F)C(F)(F)F, the activity coefficient runs as follows: (302.45 K) 1.87 ± 0.13; (322.35 K) 1.8 ± 0.1; (342.45 K) 1.74 ± 0.12.

Take `CCCCCCCC` [octane] + CCCCCCCCCCCCCC[P+](CCCCCC)(CCCCCC)CCCCCC.O=S(=O)([N-]S(=O)(=O)C(F)(F)F)C(F)(F)F: the activity coefficient amounted to 1.48 ± 0.1 (302.45 K), 1.42 ± 0.09 (322.35 K) and 1.4 ± 0.1 (342.45 K).

Take `CCCC(C)=O` [pentan-2-one] + CCCCCCCCCCCCCC[P+](CCCCCC)(CCCCCC)CCCCCC.O=S(=O)([N-]S(=O)(=O)C(F)(F)F)C(F)(F)F: the activity coefficient came out at 0.31 ± 0.03 (302.45 K), 0.32 ± 0.03 (322.35 K) and 0.33 ± 0.03 (342.45 K).

`CCCO` [propan-1-ol] + CCCCCCCCCCCCCC[P+](CCCCCC)(CCCCCC)CCCCCC.O=S(=O)([N-]S(=O)(=O)C(F)(F)F)C(F)(F)F: the activity coefficient worked out at 1.53 ± 0.1 (302.45 K), 1.21 ± 0.08 (322.35 K) and 1 ± 0.06 (342.45 K).

As for `CC(C)O` [propan-2-ol] + CCCCCCCCCCCCCC[P+](CCCCCC)(CCCCCC)CCCCCC.O=S(=O)([N-]S(=O)(=O)C(F)(F)F)C(F)(F)F, the activity coefficient by setting is: (322.35 K) 1.22 ± 0.08; (342.45 K) 0.99 ± 0.06.

Regarding `CCC=O` [propanal] + CCCCCCCCCCCCCC[P+](CCCCCC)(CCCCCC)CCCCCC.O=S(=O)([N-]S(=O)(=O)C(F)(F)F)C(F)(F)F, the activity coefficient is, setting by setting: (302.45 K) 0.35 ± 0.03; (322.35 K) 0.33 ± 0.03; (342.45 K) 0.31 ± 0.03.

Regarding `c1ccncc1` [pyridine] + CCCCCCCCCCCCCC[P+](CCCCCC)(CCCCCC)CCCCCC.O=S(=O)([N-]S(=O)(=O)C(F)(F)F)C(F)(F)F, the activity coefficient is, setting by setting: (302.45 K) 0.52 ± 0.04; (322.35 K) 0.41 ± 0.03; (342.45 K) 0.34 ± 0.03.

For the compound `ClC(Cl)(Cl)Cl` [tetrachloromethane] + CCCCCCCCCCCCCC[P+](CCCCCC)(CCCCCC)CCCCCC.O=S(=O)([N-]S(=O)(=O)C(F)(F)F)C(F)(F)F, the activity coefficient (302.45 K) was 0.55 ± 0.04, the activity coefficient (322.35 K) was found to be 0.55 ± 0.04 and the activity coefficient (342.45 K) is 0.55 ± 0.04.
